These results are taken from patent US20210163404A1, “NOVEL UREA COMPOUNDS AND BIOISOSTERES THEREOF AND THEIR USE FOR TREATING INFLAMMATION AND INFLAMMATION-RELATED PATHOLOGIES” (UNIVERSITÉ LAVAL, priority 2017, published 2021).

Structures are written as SMILES. Bounds are passed on as bounds.

For series [1], the system named is HT-29 colon adenocarcinoma cells. As to the kind of experiment: Antiproliferative activity (NCI procedure, sulforhodamine B), HT-29. The class given is cell-based, human. Particulars: Homo sapiens, HT-29; Table 8; unit inferred, tested 781 nM to 100 μM, 48 h. In short, it runs like this:
(§1)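 Cells seeded in DMEM, grown 24 h at 37 °C, then exposed 48 h to serial dilutions from 100 μM to 781 nM (DMSO <0.5%). TCA fixation, sulforhodamine B staining, absorbance at 530-568 nm; growth inhibition relative to plates fixed on treatment day. At least two experiments in triplicate.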

Series [2] concerns HaCaT keratinocyte cell line. As to the kind of experiment: Antiproliferative activity (NCI procedure, sulforhodamine B), HaCaT. Particulars: Homo sapiens, HaCaT; Table 8; unit inferred, tested 781 nM to 100 μM, 48 h. The class given is cell-based, human. Summed up: as §1
For series [3], the system named is HDFn neonatal dermal fibroblast cell line. As to the kind of experiment: Antiproliferative activity (NCI procedure, sulforhodamine B), HDFn. It is filed as cell-based, human. As to conditions: Homo sapiens, Fibroblast; Table 8; unit inferred, tested 781 nM to 100 μM, 48 h. Summed up:
as §1

Series [4] deals with A549 adenocarcinoma alveolar epithelial cancer cells. In words: Antiproliferative activity (NCI procedure, sulforhodamine B), A549. It is filed as cell-based, human. As to conditions: Homo sapiens, A549; Table 8; unit inferred, tested 781 nM to 100 μM, 48 h. In short, it runs like this:
as §1

A further series deals with HaCaT cells. In words: Cell cycle analysis by flow cytometry. It is filed as cell-based, human. Particulars: 10 μM, 24 h. As for the experimental part:
The effect of compounds 3a-b, 4e, 5b-c, 6a and 6e on cell cycle progression was subsequently assessed using a flow cytometer in accordance with established experimental protocols to evaluate any potential drug toxicity at specific phases of the cell cycle (Table 3).
HaCaT cells (2.5×10^5) were incubated with compounds 3a-b, 4e, 5b-c, 6a and 6e and curcumin (10 μM) over a period of 24 h. The cells were subsequently trypsinized, washed with PBS, resuspended in PBS (250 μL), fixed by the addition of ice-cold EtOH (750 μL) under agitation and stored at −20° C. until analysis. Prior to FACS analysis, cells were washed with PBS and resuspended in PBS (500 μL) containing 4′,6′-diamidino-2-phenylindole (DAPI) (2 μg/mL). The cell cycle was analyzed using an LSR II flow cytometer (BD Biosciences, Franklin Lakes, N.J.).
In general terms: A flow cytometer gives signals particle by particle.

In general, IC50 refers to the midpoint of a concentration-inhibition curve. A low value points to greater potency in that assay. The melting point is the temperature of the solid-liquid transition. `S=C(Nc1cccc(I)c1)NC1CC1` [Compound 103] displayed a melting point of 142 to 152 °C. In addition, in series [1], the IC50 is greater than 100 µM. Moreover, the IC50 in series [2] was greater than 100 µM. This molecule also had an IC50 in series [3] greater than 100 µM. The same molecule displayed an IC50 in series [4] greater than 100 µM.
`S=C(Nc1cccc(C2CCCCC2)c1)NC1CC1` [Compound 105] showed a melting point of 122 to 128 °C. The same molecule gave an IC50 in series [1] of 12.7 µM. In addition, in series [2], 16.3 µM corresponded to half-maximal inhibition (IC50). In series [3], this molecule registered an IC50 of 14.7 µM. The molecule also came in with an IC50 in series [4] of 15.9 µM.
The molecule `S=C(NCC1CCC1)Nc1cccc(C2CCCCC2)c1` [Compound 106] had a melting point of 102 to 110 °C. This molecule also had an IC50 in series [1] of 13.2 µM. The molecule also came in with an IC50 in series [2] of 14.9 µM. In series [3], the IC50 came to 4.9 µM. Also, in series [4], the IC50 came out at 17 µM.
Molecule `S=C(Nc1cccc(C2CCCCC2)c1)NC1CCCC1` [Compound 107] gave a melting point of 129 to 142 °C. In addition, 5.7 µM corresponded to half-maximal inhibition in series [1] (IC50). The molecule further came in with an IC50 in series [2] of 7.9 µM. In addition, the IC50 in series [3] is 3.8 µM. For the same molecule, the IC50 in series [4] was 6.2 µM.
Regarding `CCNC(=O)Nc1ccc(C(C)(C)C)cc1` [tBEU, reference compound], in the series with HaCaT cells, the “Cell cycle progression G0-G1” value worked out at 55.5, the “Cell cycle progression G2-M” value stood at 19.1 and the “Cell cycle progression S” value was found to be 25.3.
